Data reported in paper PMC9738531, “Cholinesterases Inhibition, Anticancer and Antioxidant Activity of Novel Benzoxazole and Naphthoxazole Analogs” (Molecules, 2022).

Assays:
[1] = Lipophilicity by RP-18 HPLC chromatography; assay type: physicochemical; conditions: for -S (slope of log k vs MeOH fraction): MeOH/acetate buffer, pH 7.4; for log kw: pH 7.4, extrapolation to pure water as mobile phase
Source text: The lipophilicity parameter was estimated for the tested compounds as it is an important feature that influences the pharmacokinetic properties of bioactive compounds [46, 47]. Lipophilicity also determines some biological activities, such as the antiproliferative or fungistatic activity. For lipophilicity determination, reversed-phase column chromatography was used, with the octadecyl C-18 stationary phase and MeOH as the organic modifier in the isocratic conditions.
HPLC measurements were performed using a liquid chromatograph (Knauer, Berlin, Germany) with a dual pump and a UV-visible detector. The measurements were made at 254 or 320 nm at room temperature. A Eurosil Bioselect C18 (5 μm, 300 × 4.6 mm) column was applied as the stationary phase. The mobile phase consisted of different volume mixtures of 20 mM acetate buffer as the aqueous phase, and MeOH as the organic modifier (pH 7.4). The different concentrations of MeOH from 0.5 to 0.90 (v/v) range was used, depending on the structure of the compound at 0.05 intervals. The flow rate was 1 mL/min. Retention time of an unretained solute (t0) was determined by the injection of a small amount of acetone dissolved in water.
Regular changes in the retention coefficients of compounds in a function of the organic modifier MeOH content in the mobile phase are described by the Soczewiński–Wachtmeister equation [56]:log k = log kw + S φ(1)
φ—the volume fraction of organic modifier (MeOH) in the mobile phase; log kw—the intercept; S—slope of the regression curve. Log kw refers to the retention parameter of a compound with pure water as the mobile phase.

[2] = system: HCV29T (bladder cancer) cells; test: SRB antiproliferative assay, HCV29T; assay type: cell-based, human; conditions: Homo sapiens, HCV29T, 72 h, means ± SD, read-out: IC50 HCV 29T
Experimental: (§1) The compounds were also evaluated for their antiproliferative potencies against human cancer cell lines as the potential anticancer agents. […]. The results are presented in Table 3 and expressed as IC50 (μM). In that score, the highest potency was shown by the analogs from the naphtho[1,2-d][1,3]oxazole group 8–10, particularly by derivative 10 with a chlorine atom on the benzenediol moiety.
(§2) In the antiproliferative assay in vitro, the following human cell lines were applied: T47D (breast cancer), SW707 (rectal adenocarcinoma), A549 (non-small cell lung carcinoma) from the American Type Culture Collection (Rockville, MD, USA) and HCV29T (bladder cancer) from the Fibiger Institute, Copenhagen, Denmark. Cytotoxicity assay was performed after 72 h exposure of the cultured cells at the concentration ranging from 0.1 to 100 μg/mL of the tested agents. The SRB test measuring the cell proliferation inhibition in the in vitro culture was applied. The cellular material fixed with TCA was stained with 0.4% sulforhodamine B (Chemie GmbH, Steinheim, Germany) dissolved in 1% acetic acid (POCh, Gliwice, Poland) for 30 min.

[3] = DPPH free radical scavenging activity; conditions: concentration scavenging 50% of DPPH radicals; means ± SD of three experiments
Experimental: To evaluate the antioxidant potential of compounds as radical scavengers versus the stable free radicals, 2,2-diphenylpicrylhydrazyl (DPPH) was applied. Antioxidant properties were expressed as the IC50 value—the concentration of compound required for scavenging 50% of DPPH radicals. […].
The DPPH free radical scavenging activities of the synthesized compounds were measured by DPPH, according to the method described in the paper. The free radical scavenging activity was measured as a decrease in the absorbance of DPPH, and calculated using the equation:DPPH scavenging effects (%) = […] [(A0 − A1)/A0]∙100](2) where: A0 was the absorbance of the control reaction and A1 absorbance in the presence of the sample of the analysed compounds [62]. The IC50 values were calculated as the concentration of compound required for scavenging 50% of DPPH [45]. Results were presented as the mean ± standard deviation (SD). The antioxidant activity data were compared using the one-way ANOVA test at the significance level 5%.

[4] = biological target: T1, Acetylcholinesterase (AChE, E.C. 3.1.1.7, from human erythrocytes) (Homo sapiens, UniProt P22303); test: biochemical; conditions: for Selectivity for AChE: IC50 (BChE)/IC50 (AChE); for IC50: means ± SEM of three independent experiments
T1 construct: Acetylcholinesterase (AChE, E.C. 3.1.1.7, from human erythrocytes); purchased Sigma-Aldrich (Steinheim, Germany); host or cells: human erythrocytes (natural source)
T1 sequence (P22303 other isoform, or with tags, fused parts or gaps): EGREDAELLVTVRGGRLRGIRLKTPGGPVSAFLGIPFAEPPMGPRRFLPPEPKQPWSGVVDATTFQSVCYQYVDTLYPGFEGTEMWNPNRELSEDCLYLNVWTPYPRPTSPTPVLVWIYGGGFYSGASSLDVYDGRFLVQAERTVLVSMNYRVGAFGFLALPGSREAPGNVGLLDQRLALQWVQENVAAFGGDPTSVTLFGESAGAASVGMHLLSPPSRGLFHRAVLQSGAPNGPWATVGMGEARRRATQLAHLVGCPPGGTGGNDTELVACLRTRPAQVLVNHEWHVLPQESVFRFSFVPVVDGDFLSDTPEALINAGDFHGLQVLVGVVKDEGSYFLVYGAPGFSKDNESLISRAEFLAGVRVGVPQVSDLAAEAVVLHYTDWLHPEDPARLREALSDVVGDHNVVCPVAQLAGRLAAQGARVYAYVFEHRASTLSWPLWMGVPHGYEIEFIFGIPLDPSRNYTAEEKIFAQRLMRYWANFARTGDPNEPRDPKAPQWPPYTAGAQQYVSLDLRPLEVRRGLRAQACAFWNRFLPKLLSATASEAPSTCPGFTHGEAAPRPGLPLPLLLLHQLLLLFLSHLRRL
Experimental: (§3) The compounds were evaluated by an in vitro assay as the AChE and BChE inhibitors. The studies were carried out using the modified Ellman’s method. […] The inhibitory activities against AChE and BChE of the newly-synthesized compounds were determined exactly, according to a previous paper. […] The samples were analysed in triplicate. IC50 values were designated from a dose–response curve obtained by plotting the percentage of inhibition versus the log concentration, using GraphPad Prism 8 software. […] AChE and BChE activity data were compared using the Kruskal–Wallis test at the significance level of 1%.

[5] = biological target: T2, butyrylcholinesterase (BChE, E.C. 3.1.1.8, from equine serum) (Equus caballus, UniProt P81908); test: biochemical; conditions: means ± SEM of three independent experiments
T2 construct: butyrylcholinesterase (BChE, E.C. 3.1.1.8, from equine serum); purchased Sigma-Aldrich (Steinheim, Germany); host or cells: equine serum (natural source)
T2 sequence (P81908 whole entry): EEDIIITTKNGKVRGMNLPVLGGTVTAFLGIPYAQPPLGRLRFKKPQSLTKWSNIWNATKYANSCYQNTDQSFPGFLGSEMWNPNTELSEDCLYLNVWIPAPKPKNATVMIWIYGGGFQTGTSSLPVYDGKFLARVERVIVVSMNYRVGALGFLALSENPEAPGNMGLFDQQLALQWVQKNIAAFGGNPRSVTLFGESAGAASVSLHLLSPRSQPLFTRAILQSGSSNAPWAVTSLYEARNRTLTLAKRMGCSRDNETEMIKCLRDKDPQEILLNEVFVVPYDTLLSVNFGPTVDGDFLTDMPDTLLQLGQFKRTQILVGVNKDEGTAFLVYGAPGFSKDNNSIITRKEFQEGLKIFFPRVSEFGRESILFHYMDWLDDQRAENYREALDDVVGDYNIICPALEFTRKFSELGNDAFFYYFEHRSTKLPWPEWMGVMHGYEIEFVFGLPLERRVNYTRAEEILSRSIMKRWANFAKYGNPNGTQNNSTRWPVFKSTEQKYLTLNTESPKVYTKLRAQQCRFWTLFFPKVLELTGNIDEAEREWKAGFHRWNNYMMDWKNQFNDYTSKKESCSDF
Experimental: as §3

[6] = system: A549 (non-small cell lung carcinoma) cells; test: SRB antiproliferative assay, A549; assay type: cell-based, human; conditions: Homo sapiens, A549, 72 h, means ± SD
Experimental: as §1, §2

[7] = system: T47D (breast cancer) cells; test: SRB antiproliferative assay, T47D; assay type: cell-based, human; conditions: Homo sapiens, T47D, 72 h, means ± SD
Experimental: as §1, §2

[8] = system: SW707 (rectal adenocarcinoma) cells; test: SRB antiproliferative assay, SW707; assay type: cell-based, human; conditions: Homo sapiens, SW707, 72 h, means ± SD, read-out: IC50 SW 707
Experimental: as §1, §2

Compound	-S (slope of log k vs MeOH fraction) [1]	log kw [1]	IC50 [2] [µM]	IC50 [3] [µM]	Selectivity for AChE [4]	IC50 [4] [µM]	IC50 [5] [µM]	IC50 [6] [µM]	IC50 [7] [µM]	IC50 [8] [µM]
Oc1ccc(-c2nc3ccccc3o2)c(O)c1 [Compound 1, 4-(1,3-Benzoxazol-2-yl)benzene-1,3-diol]	4.358	3.273	33.9 ± 4.77	–	–	–	–	–	–	–
COC(=O)c1ccc2nc(-c3cc(Cl)c(O)cc3O)oc2c1 [Compound 6, Methyl 2-(5-chloro-2,4-dihydroxyphenyl)-1,3-benzoxazole-6-carboxylate]	5.477	4.223	7.54 ± 3.15	0.861 ± 0.071	0.394	0.831 ± 0.014	0.328 ± 0.027	10.5 ± 5.61	6.61 ± 2.48	6.04 ± 0.89
Cc1c(O)ccc(-c2nc3ccc(O)cc3o2)c1O [Compound 2, 4-(6-Hydroxy-1,3-benzoxazol-2-yl)-2-methylbenzene-1,3-diol]	4.64	3.301	8.34 ± 1.53	–	–	–	–	6.81 ± 2.23	5.28 ± 0.16	4.38 ± 1.57
CCc1cc(-c2nc3c(ccc4ccccc43)o2)c(O)cc1O [Compound 9, 4-Ethyl-6-(naphtho[1,2-d][1,3]oxazol-2-yl)benzene-1,3-diol]	5.395	4.901	3.72 ± 0.36	0.214 ± 0.024	1.971	0.516 ± 0.009	1.02 ± 0.032	4.94 ± 0.69	7.28 ± 2.5	8.58 ± 3.4
COC(=O)c1ccc2nc(-c3ccc(O)c(O)c3O)oc2c1 [Compound 7, Methyl 2-(2,3,4-trihydroxyphenyl)-1,3-benzoxazole-6-carboxylate]	4.811	2.800	23.3 ± 4.07	0.887 ± 0.064	3.644	0.183 ± 0.031	0.667 ± 0.004	–	–	–
